Assay results from patent publication US20090105202A1 (priority 2005, published 2009).
Like-named read-outs stand apart in the source and are kept apart here.

Assays:
HCT116 cells [1] = format: cell-based; set-up: unit not given here
HCT116 cells [2] = conditions: read-out: IC50 (the drug concentration producing 50% inhibition of colony formation), drugs 72 hours, colonies counted after 8 days
Protocol: To test the effect of androsterone derivatives of this example, HCT116cells (colorectal carcinoma cells) were plated in 60 mm Petri dishes containing 2.7 ml of medium (modified McCoy's 5a medium containing 10% fetal bovine serum and 100 units/ml penicillin and 100 µg/ml streptomycin). The cells were incubated in a CO2 incubator at 37° C. for 5 hours for attachment to the bottom of Petri dishes. Drugs were made up fresh in medium at ten times the final concentration, and then 0.3 ml of tins stock solution was added to the 2.7 ml of medium containing 5% bovine calf serum (BCS) in the dish. The cells were then incubated with drugs for 72 hours at 37° C. At the end of incubation the drug-containing media were decanted, the dishes were rinsed with 4 ml of Hank's Balance Salt Solution (HBSS). […] The cell colonies stained with methylene blue (0.5% in ethanol) were counted using colony counter after incubation for 8 days for HCT116 cells.

Structure (SMILES)	In vitro antitumor activity against HCT116 cells (HCT116 cells [1]; 10 μM)	IC50 (HCT116 cells [2]) [nM]	In vitro antitumor activity against HCT116 cells (HCT116 cells [1]; 1 μM)	In vitro antitumor activity against HCT116 cells (HCT116 cells [1]; 100 nM)
O=c1[nH]cc(F)c(=O)[nH]1 [5-FU, reference compound]	17.00			
CC[C@@]1(OC(=O)COc2ccc(C(=O)O[C@@H]3CC[C@@]4(C)[C@@H](CC[C@@H]5[C@@H]4CC[C@]4(C)C(=O)CC[C@@H]54)C3)cc2)C(=O)OCc2c1cc1n(c2=O)Cc2cc3ccccc3nc2-1 [compound 010216, Camptothecin-20S-O-(4-carboxyphenexyacetate) linked with androsterone]		2.5		
CC[C@@]1(OC(=O)COc2ccc(C(=O)O[C@H]3CC[C@@]4(C)[C@@H](CC[C@@H]5[C@@H]4CC[C@]4(C)C(=O)CC[C@@H]54)C3)cc2)C(=O)OCc2c1cc1n(c2=O)Cc2cc3ccccc3nc2-1 [compound 0103021, Camptothecin-20S-O-(4-carboxyphenoxyacetate) linked with epiandrosterone]		3.5		
CC(ON=C1c2cc([N+](=O)[O-])cc([N+](=O)[O-])c2-c2c1ccc([N+](=O)[O-])c2[N+](=O)[O-])C(=O)O[C@H]1CC[C@@]2(C)[C@@H](CC[C@@H]3[C@@H]2CC[C@]2(C)C(=O)CC[C@@H]32)C1 (stereo partly drawn) [compound 991022, (3β,5α)-3-Hydroxyandrostan-17-one (+)-2-(2,4,5,6-tetranitro-9-flourenylidene-aminooxy)proprionate]	0		100	
C[C@]12CC[C@H](OC(=O)c3ccc([N+](=O)[O-])o3)C[C@@H]1CC[C@@H]1[C@@H]2CC[C@]2(C)C(=O)CC[C@@H]12 [compound 991027, (3β,5α)-3-Hydroxyandrostan-17-one 5-nitro-2-furoate]	0		0	4.00
C[C@]12CC[C@H](OC(=O)CCC(=O)OCc3ccc4c(c3)C(=O)c3ccccc3C4=O)C[C@@H]1CC[C@@H]1[C@@H]2CC[C@]2(C)C(=O)CC[C@@H]12 [compound 991120, 1-((3β,5α)-3-Hydroxyandrostan-17-one)-4-(2-(hydroxymethyl)anthraquinone)-succinate]	0		100	
